In PubChem BioAssay (NCI):
Where “and” joins values, the source holds several entries; their conditions need not be identical. Equal entries are not always repeated.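 Test compounds were applied to cells in 96-well plates for 48 hours at 5 doses. Here, GI50 denotes the concentration required for 50% inhibition of growth. TGI: total growth inhibition.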

What was measured:
Assay in all cases: inhibition of tumour cell growth, NCI panel, 48 h
UACC-257 melanoma = tested on: UACC-257 melanoma
ACHN renal = tested on: ACHN renal
COLO 205 colon = tested on: COLO 205 colon
NCI-H226 lung = tested on: NCI-H226 lung
A549 NSCLC = tested on: A549 NSCLC
SF-539 CNS = tested on: SF-539 CNS
EKVX NSCLC = tested on: EKVX NSCLC
U251 CNS = tested on: U251 CNS
DU-145 prostate = tested on: DU-145 prostate
BT-549 breast = tested on: BT-549 breast

Row | SMILES | GI50 (UACC-257 melanoma) [µM] | TGI (UACC-257 melanoma) [µM] | GI50 (ACHN renal) [µM] | TGI (ACHN renal) [µM] | GI50 (COLO 205 colon) [µM] | TGI (COLO 205 colon) [µM] | GI50 (NCI-H226 lung) [µM] | TGI (NCI-H226 lung) | GI50 (A549 NSCLC) [µM] | TGI (A549 NSCLC) | TGI (SF-539 CNS) | TGI (EKVX NSCLC) [µM] | TGI (U251 CNS) | GI50 (DU-145 prostate) [µM] | TGI (DU-145 prostate) [µM] | GI50 (BT-549 breast) [µM] | TGI (BT-549 breast) [µM] | GI50 (SF-539 CNS) | GI50 (U251 CNS) | GI50 (EKVX NSCLC) [µM]
1 | CC(=O)[CH-]C(=O)c1ccccc1.CC(=O)[CH-]C(=O)c1ccccc1.C[C@]12CCC(=O)C=C1CC[C@@H]1C2CC[C@@]2(C)C1CC[C@@H]2[O-].C[C@]12CCC(=O)C=C1CC[C@@H]1C2CC[C@@]2(C)C1CC[C@@H]2[O-].Cl.[Ti+4] (stereo partly specified) | 19.3 | 69.7 | 17.2 | 49.5 | 37 | > 100 | 12.9 | 35.2 µM | 18.4 | 43.9 µM |  |  |  |  |  |  |  |  |  | 
2 | OCc1c[te]c(-c2ccccc2)c1 |  | > 100 |  | > 100 |  |  |  | 85.1 µM |  | > 100 µM | 78.3 µM | > 100 | > 100 µM |  |  |  |  |  |  | 
3 | CCNC(=O)O/N=C1\CCC2[C@@H]3CC=C4C[C@@H](OC5CCCCO5)CC[C@]4(C)C3CC[C@]12C (stereo partly specified) |  | 4.41 |  | 2.81 |  |  |  |  |  | 64.2 µM | > 100 µM | 5.78 | 4.29 µM |  |  |  |  |  |  | 
4 | N/N=c1\c2ccccc2c2cc3c(cc12)/c(=N/N)c1ccccc13 |  | > 100 |  | > 100 |  | > 100 |  | > 100 µM |  | > 100 µM | > 100 µM | > 100 | > 100 µM |  |  |  |  |  |  | 
5 | Cc1cc(N(CCCl)CCCl)ccc1C=Nc1ccc2ccccc2c1 | 3.17 | > 39.6 | 4.51 | > 100 | 13.2 | > 82.6 | 0.297 | 1.82 µM | 14.2 | > 100 µM | > 100 µM |  | > 100 µM | 7.71 | > 100 | 19.8 | > 100 | 4.97 µM | 9.98 µM | 
6 | Cn1cc(C2=C(c3cn(C)c4ccccc34)C(=O)NC2=O)c2ccccc21 | 4.17 | > 25 | 2.25 | > 25 | 1.1 | > 25 | 9.19 | > 25 µM | 1.97 | > 25 µM | 5.25 µM |  | > 25 µM | 1.66 | > 25 | 2.33 | > 25 | 0.738 µM | 1.26 µM | 
7 | C=C(C(=C)P(=S)(c1ccccc1)c1ccccc1)P(=S)(c1ccccc1)c1ccccc1 |  | > 100 |  | > 100 |  | > 100 |  |  |  | > 100 µM | > 100 µM | > 100 | > 100 µM |  |  |  |  |  |  | 
8 | CC#CC1C2CCCC1(CSc1ccccc1)NC(=O)O2 (stereo unspecified) |  | > 100 |  | > 100 |  | > 100 |  | > 100 µM |  | > 100 µM | > 100 µM | > 100 | > 100 µM |  |  |  |  |  |  | 
9 | c1ccc2cc(C[n+]3ccn(CCCCCCCCCCn4cc[n+](Cc5ccc6ccccc6c5)c4)c3)ccc2c1 | 1.37 | 5.58 | 6.17 | 80.3 | 0.411 | 1.68 | 0.918 | 13.6 µM |  |  | 6.54 µM | 9.07 |  | 1.06 | 14.1 |  |  | 1.19 µM |  | 0.442
10 | CC(=O)Nc1ccc(COC(O)CN2CCCCC2)cc1[N+](=O)[O-] (stereo unspecified) |  | > 100 |  | > 100 |  | > 100 |  | > 100 µM |  | > 100 µM | > 100 µM |  | > 100 µM |  | > 100 |  | > 100 |  |  | 
11 | COc1ccc2nc3cc(Cl)ccc3c(Sc3ccc([N+](=O)[O-])cc3)c2c1 | > 100 | > 100 |  | > 10 | > 100 | > 100 | > 100 | > 100 µM | > 100 | > 100 µM | > 10 µM | > 100 | > 100 µM |  |  |  |  |  | > 100 µM | > 100
12 | CN1CCN(C)C12C=CC=CC21CC1 |  | > 100 |  | > 100 |  | > 100 |  | > 100 µM |  | > 100 µM | > 100 µM | > 100 | > 100 µM |  |  |  |  |  |  | 
13 | Cc1ccccc1-n1c2nc(=O)n(C)c(=O)c-2nc2ccccc21 |  | 21.4 |  | 21 |  | 13.9 |  | 45 µM |  | 35.4 µM | 29.2 µM | 24.3 | 33.2 µM |  |  |  |  |  |  | 
14 | COc1ccccc1NC(=O)c1nc2ccc([N+](=O)[O-])cc2nc1C |  | > 100 |  | > 100 |  | > 100 |  | > 100 µM |  | > 100 µM | > 100 µM | > 100 | > 100 µM |  |  |  |  |  |  | 
15 | NCCNCc1c2ccccc2c(CNCCN)c2ccccc12 |  | 35.5 |  | > 100 |  | > 100 |  |  |  | 38.7 µM | 29.5 µM | 50.1 | 97.7 µM |  |  |  |  |  |  | 
16 | COc1cc(-c2cc(-c3cc(OC)c(OC)c(OC)c3)nc3nc(N)[nH]c(=O)c23)ccc1Oc1ccnc2cc(Cl)ccc12 | 7.08 | 60.8 | 2.89 | 82.7 | 12.9 | 30 | 13.4 | 35.9 µM | 2.84 | > 100 µM | 3.18 µM |  | 7.32 µM | 3.51 | > 100 | 2.91 | 20.8 | 1.16 µM | 2.46 µM | 
17 | Cc1cc(C)nc(NS(=O)(=O)c2ccc(Nc3c4ccc(Cl)cc4nc4c(C(=O)NCCN(C)C)cccc34)cc2)n1 |  | > 100 |  | > 100 |  | > 100 |  | > 100 µM |  | > 100 µM | > 100 µM | > 100 | > 100 µM |  |  |  |  |  |  | 
18 | Cc1ccc(S(=O)OCC23CC4CC(CC(C4)C2)C3)cc1 (stereo unspecified) |  | > 100 |  | > 100 |  | > 100 |  | > 100 µM |  | > 100 µM | > 100 µM | > 100 | > 100 µM |  |  |  |  |  |  | 
19 | OCc1ccc(N2CCc3ccccc3C2)cc1Cl |  |  | 18.4 | > 78.6 | 0.0136 | 0.0619 | 0.0134 | 0.0768 µM | 0.0604 | 7.59 µM | > 100 µM |  | > 44.5 µM | 2.38 | 22.3 | 17.7 | 40.8 | 41.9 µM | < 0.0292 µM | 
20 | COC(=O)C1=C(C(=O)OC)C2(C)Nc3ccccc3C2=C(c2ccccc2)C1 (stereo unspecified) |  | 39.7 |  | 62.3 |  | 34 |  |  |  | 46.7 µM | 37.5 µM | 70.5 | 41.6 µM |  |  |  |  |  |  | 
21 | CC1(c2ccccc2)CC(c2cccc([N+](=O)[O-])c2)=NO1 (stereo unspecified) |  | > 100 |  | > 100 |  | > 100 |  | > 100 µM |  | > 100 µM | > 100 µM |  | > 100 µM |  |  |  |  |  |  | 
22 | CC(C)NC(=O)CCN(C(=O)O)S(=O)(=O)c1ccc(NC(=O)c2ccccc2)cc1 |  | > 79.3 |  | > 100 |  | > 58.5 |  | > 100 µM |  | > 71.2 µM | 67.5 µM | > 100 | 32.1 µM |  |  |  |  |  |  | 
23 | COC1=CC(c2ccc[nH]2)=N/C1=C\c1[nH]c(C)c(C(=O)CCCCC(=O)Oc2ccc3c(c2)CCC2C3CC[C@]3(C)[C@@H](O)CC[C@@H]23)c1C (stereo partly specified) | > 100 | > 100 | 5.14 | > 100 | > 100 | > 100 | 8.88 | > 100 µM | 6.58 | > 100 µM |  |  | > 100 µM | 9.57 | > 100 | 4.39 | > 100 |  | 7.79 µM | 
24 | Cc1ccc(NC(=O)/C(Cl)=C(/Cl)C(=O)O)cc1 |  | 44.2 |  | 30.1 |  | 20.3 |  | > 100 µM |  | > 100 µM |  | 31.2 | 30.9 µM |  |  |  |  |  |  | 
25 | O=C(COC(=O)c1cccc2c(=O)c3ccccc3[nH]c12)Nc1ccc(C(=O)O)cc1 |  | > 100 |  | > 100 |  | > 100 |  | > 10 µM |  | > 100 µM | > 100 µM | > 100 | > 100 µM |  |  |  |  |  |  | 
26 | CC1=CC(N2C(=O)C(C)=CC2O)NC1=O (stereo unspecified) |  | > 100 |  |  |  | > 100 |  | > 100 µM |  | > 100 µM | > 100 µM | > 100 | > 100 µM |  |  |  |  |  |  | 
27 | COc1cc(/C=C2\C[C@H]3[C@@H]4CC=C5C[C@@H](O)CC[C@]5(C)[C@H]4CC[C@]3(C)[C@H]2O)ccc1OCCCn1ccnc1 | 6.3 | 15.4 | 1.28 | 3.34 | 8.74 | > 50 | 4.09 | 15.2 µM | 1.18 | 2.63 µM | 2.09 µM | > 50 | 1.72 µM | 1.92 | 7.45 |  |  | 1.05 µM | 0.923 µM | 6.06
28 | O=C1CCSC2=C1SCc1sccc12 |  | > 100 |  |  |  | > 100 |  |  |  | > 100 µM |  | > 100 |  |  |  |  |  |  |  | 
29 | COc1ccc(C2C(C)C(=O)C(C)C(c3ccc(OC)cc3)N2N=O)cc1 (stereo unspecified) |  | > 1000 |  | > 663 | > 750 | > 750 | > 88.4 | > 75 µM and 457 µM | 409 | 750 µM and > 1000 µM | 46.8 µM and 341 µM and 222 µM | > 1000 | 750 µM and 428 µM |  | 637 |  |  | 18 µM and 41.3 µM | 35 µM and 85.9 µM | 
